According to ChEMBL document CHEMBL4831528, “Discovery of Novel Pterostilbene-Based Derivatives as Potent and Orally Active NLRP3 Inflammasome Inhibitors with Inflammatory Activity for Colitis” (J Med Chem, 2021):
The source made the active and inactive calls. No cut-off for these calls is given here.

Experiments:
[1] = molecular target: NLR family CARD domain-containing protein 4 (Mus musculus) (UniProt Q3UP24); assay: Inhibition of NLRC4 inflammasome activation in LPS-stimulated mouse bone marrow-derived macrophages assessed as reduction in IL-1beta secretion at 2 uM preincubated for 30 mins followed by Salmonella addition and measured after 4 hrs by ELISA; format: tissue-based; conditions: Macrophage, time 4.5 hrs
Mus musculus [2] = assay: Protection against DSS-induced acute ulcerative colitis in C57BL/6 mouse assessed as reduction in pathological index score at 10 to 20 mg/kg, ig administered for 7 days by Hematoxylin and eosin staining based optical microscopy; format: functional, organism-based; conditions: dose 10-20 mg/kg, time 7.0 day
Mus musculus [3] = assay: Downregulation of IL6 expression in colon of C57BL/6 mouse model of DSS-induced ulcerative colitis at 10 to 20 mg/kg, ig administered for 7 days by ELISA; format: functional, organism-based; conditions: dose 10-20 mg/kg, time 7.0 day
[4] = molecular target: NACHT, LRR and PYD domains-containing protein 3 (Mus musculus) (UniProt Q8R4B8); assay: Inhibition of NLRP3 inflammasome activation in LPS-stimulated mouse J774A.1 cells assessed as inhibition of cell pyrolysis at 10 uM incubated for 1 hr followed by ATP addition and measured after 30 mins by Hoechst 33342/propidium iodide staining based high content screening method relative to control; conditions: J774.A1, time 1.5 hrs
[5] = Hepatic clearance in human liver microsomes preincubated for 5 mins followed by NADPH addition and measured after 5 to 60 mins by LC-MS/MS analysis; format: ADME, Microsome; conditions: time 5-60 min
[6] = molecular target: NACHT, LRR and PYD domains-containing protein 3 (Mus musculus) (UniProt Q8R4B8); assay: Inhibition of NLRP3 inflammasome activation in LPS-stimulated mouse bone marrow-derived macrophages assessed as reduction in NEK7-NLRP3 protein-protein interaction preincubated for 30 mins followed by nigericin addition and measured after 30 mins by immunoprecipitation method; format: tissue-based; conditions: Macrophage, time 60.0 min
[7] = Hepatic clearance in mouse liver microsomes preincubated for 5 mins followed by NADPH addition and measured after 5 to 60 mins by LC-MS/MS analysis; format: ADME, Microsome; conditions: time 5-60 min
[8] = molecular target: T1, NACHT, LRR and PYD domains-containing protein 3 (Homo sapiens, UniProt Q96P20); assay: Binding affinity to His-GFP fused tagged NLRP3 (unknown origin) expressed in HEK293T assessed as thermal stabilization at 10 uM incubated for 30 mins by cellular thermal shift assay; format: cell-based
[9] = Toxicity in C57BL/6 mouse assessed as induction of anorexia at 20 to 40 mg/kg, ig administered for 28 days; format: organism-based; conditions: in vivo, po, 672 h, dose 20-40 mg/kg, time 28 day
[10] = Clearance in mouse at 2 mg/kg, iv measured after 0.08 to 24 hrs by LC-MS/MS analysis; format: ADME, organism-based; conditions: in vivo, time 0.08-24 hrs
Mus musculus [11] = assay: In vivo inhibition of NLRP3 inflammasome activation in C57BL/6 mouse assessed as reduction in MPO activity at 10 to 20 mg/kg, ig administered for 7 days by ELISA; format: functional, organism-based; conditions: dose 10-20 mg/kg, time 7.0 day
BMDM = assay: Effect on NEK7 expression in LPS-stimulated mouse bone marrow-derived macrophages at 0.5 to 2 uM preincubated for 30 mins followed by nigericin addition and measured after 30 mins by Western blot analysis; format: functional, tissue-based; conditions: dose 0.5-2 µM, time 60.0 min
[12] = molecular target: NACHT, LRR and PYD domains-containing protein 3 (Mus musculus) (UniProt Q8R4B8); assay: Inhibition of NLRP3 inflammasome activation in LPS-stimulated mouse bone marrow-derived macrophages assessed as reduction in IL-1beta secretion at 2 uM preincubated for 30 mins followed by MSU addition and measured after 0.5 hrs by ELISA; format: tissue-based; conditions: Macrophage, time 60.0 min
[13] = AUC (0 to infinity) in mouse at 2 mg/kg, iv measured after 0.08 to 24 hrs by LC-MS/MS analysis; format: ADME, organism-based; design: route intravenous, time upper 24 hrs, dose 2 mg/kg, time lower 0.08 hrs; conditions: in vivo
[14] = molecular target: NACHT, LRR and PYD domains-containing protein 3 (Mus musculus) (UniProt Q8R4B8); assay: Inhibition of NLRP3 inflammasome activation in LPS-stimulated mouse bone marrow-derived macrophages assessed as reduction in activated caspase1 p20 in supernatant at 2 uM preincubated for 30 mins followed by ATP addition and measured after 0.5 hrs by Western blot analysis; format: tissue-based; conditions: Macrophage, time 60.0 min
[15] = molecular target: NACHT, LRR and PYD domains-containing protein 3 (Mus musculus) (UniProt Q8R4B8); assay: Binding affinity to NLRP3 in mouse J774A1 cells assessed as thermal stabilization at 50 uM incubated for 30 mins by cellular thermal shift assay; format: cell-based; conditions: J774.A1
[16] = molecular target: NACHT, LRR and PYD domains-containing protein 3 (Mus musculus) (UniProt Q8R4B8); assay: Inhibition of NLRP3 inflammasome activation in LPS-stimulated mouse bone marrow-derived macrophages assessed as reduction in pro caspase1 secretion in cell lysate at 2 uM preincubated for 30 mins followed by nigericin addition and measured after 0.5 hrs by Western blot analysis; format: subcellular; conditions: Macrophage, time 60.0 min
[17] = Half life in mouse at 2 mg/kg, iv measured after 0.08 to 24 hrs by LC-MS/MS analysis; format: ADME, organism-based; conditions: in vivo, time 0.08-24 hrs
[18] = molecular target: NACHT, LRR and PYD domains-containing protein 3 (Mus musculus) (UniProt Q8R4B8); assay: Inhibition of NLRP3 inflammasome activation in LPS-stimulated mouse bone marrow-derived macrophages assessed as reduction in NLRP3/ASC protein-protein interaction preincubated for 30 mins followed by nigericin addition and measured after 30 mins by immunoprecipitation method; format: tissue-based; conditions: Macrophage, time 60.0 min
[19] = molecular target: T1, NACHT, LRR and PYD domains-containing protein 3; assay: Inhibition of recombinant human NLRP3 preincubated for 15 mins followed by ATP addition by ADP-Glo kinase assay
[20] = Toxicity in C57BL/6 mouse assessed as weight gain at 20 to 40 mg/kg, ig administered for 28 days; format: organism-based; conditions: in vivo, po, 672 h, dose 20-40 mg/kg, time 28 day
L02 = assay: Cytotoxicity against human L-02 cells incubated for 24 hrs by MTT assay; format: cell-based; conditions: L02, 24 h
[21] = AUC (0 to infinity) in mouse at 20 mg/kg, po measured up to 24 hrs by LC-MS/MS analysis; format: ADME, organism-based; design: route oral, dose 20 mg/kg, time <=24; conditions: in vivo
[22] = molecular target: NACHT, LRR and PYD domains-containing protein 3 (Mus musculus) (UniProt Q8R4B8); assay: Inhibition of NLRP3 inflammasome activation in LPS-stimulated mouse bone marrow-derived macrophages assessed as reduction in caspase1 secretion at 1 to 4 uM preincubated for 30 mins followed by nigericin addition and measured after 0.5 hrs by Western blot analysis; format: tissue-based; conditions: Macrophage, dose 1-4 µM
[23] = molecular target: NACHT, LRR and PYD domains-containing protein 3 (Mus musculus) (UniProt Q8R4B8); assay: Inhibition of NLRP3 inflammasome activation in LPS-stimulated mouse bone marrow-derived macrophages assessed as reduction in cleaved IL-1beta in supernatant at 2 uM preincubated for 30 mins followed by MSU addition and measured after 0.5 hrs by Western blot analysis; format: tissue-based; conditions: Macrophage, time 60.0 min
[24] = Intrinsic clearance in mouse liver microsomes preincubated for 5 mins followed by NADPH addition and measured after 5 to 60 mins by LC-MS/MS analysis; format: ADME, Microsome; conditions: time 5-60 min, read-out: CLH
Mus musculus [25] = assay: Downregulation of NLRP3 expression in colon of C57BL/6 mouse model of DSS-induced ulcerative colitis at 10 to 20 mg/kg, ig administered for 7 days by Western blot analysis; format: functional, organism-based; conditions: dose 10-20 mg/kg, time 7.0 day
[26] = Half life in human liver microsomes preincubated for 5 mins followed by NADPH addition and measured after 5 to 60 mins by LC-MS/MS analysis; format: ADME, Microsome
Mus musculus [27] = assay: Protection against DSS-induced acute ulcerative colitis in C57BL/6 mouse assessed as reduction in body weight at 10 to 20 mg/kg, ig administered for 7 days; format: functional, organism-based; conditions: dose 10-20 mg/kg, time 7.0 day
[28] = Toxicity in C57BL/6 mouse assessed as effect on heart at 20 to 40 mg/kg, ig administered for 28 days; format: organism-based; conditions: in vivo, po, 672 h, dose 20-40 mg/kg, time 28 day
[29] = molecular target: NACHT, LRR and PYD domains-containing protein 3 (Mus musculus) (UniProt Q8R4B8); assay: Inhibition of NLRP3 inflammasome activation in LPS-stimulated mouse bone marrow-derived macrophages assessed as reduction in cleaved IL-1beta secretion in supernatant at 2 uM preincubated for 30 mins followed by nigericin addition and measured after 0.5 hrs by Western blot analysis; format: tissue-based; conditions: Macrophage, time 60.0 min

Chain of NACHT, LRR and PYD domains-containing protein 3 (Mus musculus) (Q8R4B8 whole entry, the tested form may be a part): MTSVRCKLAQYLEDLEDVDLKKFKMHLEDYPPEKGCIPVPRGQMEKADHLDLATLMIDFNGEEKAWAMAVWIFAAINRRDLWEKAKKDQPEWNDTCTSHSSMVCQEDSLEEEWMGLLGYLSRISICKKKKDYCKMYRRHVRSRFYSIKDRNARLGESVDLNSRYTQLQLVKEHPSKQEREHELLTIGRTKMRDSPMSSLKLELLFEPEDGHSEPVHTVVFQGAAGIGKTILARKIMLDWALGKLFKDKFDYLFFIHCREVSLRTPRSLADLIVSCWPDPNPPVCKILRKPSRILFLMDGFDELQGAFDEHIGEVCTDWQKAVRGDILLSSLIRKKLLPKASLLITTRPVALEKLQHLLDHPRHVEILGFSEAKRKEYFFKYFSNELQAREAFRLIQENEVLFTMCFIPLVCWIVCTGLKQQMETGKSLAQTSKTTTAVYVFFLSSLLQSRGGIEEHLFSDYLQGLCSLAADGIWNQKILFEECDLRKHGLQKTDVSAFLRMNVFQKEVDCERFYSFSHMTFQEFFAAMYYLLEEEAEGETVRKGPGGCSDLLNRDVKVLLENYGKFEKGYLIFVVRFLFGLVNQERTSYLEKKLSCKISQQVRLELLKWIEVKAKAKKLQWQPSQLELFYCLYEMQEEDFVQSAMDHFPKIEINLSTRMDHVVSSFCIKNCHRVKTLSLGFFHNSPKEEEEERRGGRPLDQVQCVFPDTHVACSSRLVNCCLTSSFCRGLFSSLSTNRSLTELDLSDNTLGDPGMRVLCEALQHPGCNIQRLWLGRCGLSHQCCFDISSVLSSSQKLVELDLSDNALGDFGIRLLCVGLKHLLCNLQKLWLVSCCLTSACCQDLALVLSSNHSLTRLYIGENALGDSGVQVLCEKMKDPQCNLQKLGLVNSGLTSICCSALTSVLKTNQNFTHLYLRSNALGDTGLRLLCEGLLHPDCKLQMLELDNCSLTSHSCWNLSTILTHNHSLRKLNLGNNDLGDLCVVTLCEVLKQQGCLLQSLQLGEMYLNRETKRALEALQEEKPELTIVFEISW
T1 sequence (Q96P20 whole entry, the tested form may be a part): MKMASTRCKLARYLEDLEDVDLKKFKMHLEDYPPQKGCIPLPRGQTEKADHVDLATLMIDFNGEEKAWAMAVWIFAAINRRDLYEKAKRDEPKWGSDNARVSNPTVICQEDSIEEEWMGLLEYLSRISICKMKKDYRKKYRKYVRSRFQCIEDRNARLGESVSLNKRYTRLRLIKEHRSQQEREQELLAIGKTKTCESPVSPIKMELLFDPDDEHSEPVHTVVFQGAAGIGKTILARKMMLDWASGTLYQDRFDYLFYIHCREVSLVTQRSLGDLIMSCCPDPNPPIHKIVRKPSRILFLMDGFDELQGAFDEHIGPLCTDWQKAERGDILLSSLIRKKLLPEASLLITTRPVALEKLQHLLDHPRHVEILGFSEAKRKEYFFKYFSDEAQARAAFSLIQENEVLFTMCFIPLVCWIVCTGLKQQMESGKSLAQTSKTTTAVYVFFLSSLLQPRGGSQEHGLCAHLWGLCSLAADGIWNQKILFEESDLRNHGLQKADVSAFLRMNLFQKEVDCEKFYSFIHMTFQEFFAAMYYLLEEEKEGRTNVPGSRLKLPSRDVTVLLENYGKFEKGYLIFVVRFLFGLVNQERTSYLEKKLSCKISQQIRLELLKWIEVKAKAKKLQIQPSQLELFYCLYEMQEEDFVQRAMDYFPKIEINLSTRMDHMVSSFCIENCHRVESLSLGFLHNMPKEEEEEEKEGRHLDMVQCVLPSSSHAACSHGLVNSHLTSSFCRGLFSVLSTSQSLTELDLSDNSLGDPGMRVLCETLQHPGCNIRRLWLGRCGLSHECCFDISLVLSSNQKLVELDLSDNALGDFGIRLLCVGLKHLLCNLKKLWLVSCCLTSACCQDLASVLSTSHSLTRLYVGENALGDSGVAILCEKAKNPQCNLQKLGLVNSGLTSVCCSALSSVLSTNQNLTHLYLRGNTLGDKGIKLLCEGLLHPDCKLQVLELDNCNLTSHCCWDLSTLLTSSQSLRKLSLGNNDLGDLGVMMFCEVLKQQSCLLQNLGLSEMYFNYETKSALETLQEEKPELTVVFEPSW
Chain of NLR family CARD domain-containing protein 4 (Mus musculus) (Q3UP24 whole entry, the tested form may be a part): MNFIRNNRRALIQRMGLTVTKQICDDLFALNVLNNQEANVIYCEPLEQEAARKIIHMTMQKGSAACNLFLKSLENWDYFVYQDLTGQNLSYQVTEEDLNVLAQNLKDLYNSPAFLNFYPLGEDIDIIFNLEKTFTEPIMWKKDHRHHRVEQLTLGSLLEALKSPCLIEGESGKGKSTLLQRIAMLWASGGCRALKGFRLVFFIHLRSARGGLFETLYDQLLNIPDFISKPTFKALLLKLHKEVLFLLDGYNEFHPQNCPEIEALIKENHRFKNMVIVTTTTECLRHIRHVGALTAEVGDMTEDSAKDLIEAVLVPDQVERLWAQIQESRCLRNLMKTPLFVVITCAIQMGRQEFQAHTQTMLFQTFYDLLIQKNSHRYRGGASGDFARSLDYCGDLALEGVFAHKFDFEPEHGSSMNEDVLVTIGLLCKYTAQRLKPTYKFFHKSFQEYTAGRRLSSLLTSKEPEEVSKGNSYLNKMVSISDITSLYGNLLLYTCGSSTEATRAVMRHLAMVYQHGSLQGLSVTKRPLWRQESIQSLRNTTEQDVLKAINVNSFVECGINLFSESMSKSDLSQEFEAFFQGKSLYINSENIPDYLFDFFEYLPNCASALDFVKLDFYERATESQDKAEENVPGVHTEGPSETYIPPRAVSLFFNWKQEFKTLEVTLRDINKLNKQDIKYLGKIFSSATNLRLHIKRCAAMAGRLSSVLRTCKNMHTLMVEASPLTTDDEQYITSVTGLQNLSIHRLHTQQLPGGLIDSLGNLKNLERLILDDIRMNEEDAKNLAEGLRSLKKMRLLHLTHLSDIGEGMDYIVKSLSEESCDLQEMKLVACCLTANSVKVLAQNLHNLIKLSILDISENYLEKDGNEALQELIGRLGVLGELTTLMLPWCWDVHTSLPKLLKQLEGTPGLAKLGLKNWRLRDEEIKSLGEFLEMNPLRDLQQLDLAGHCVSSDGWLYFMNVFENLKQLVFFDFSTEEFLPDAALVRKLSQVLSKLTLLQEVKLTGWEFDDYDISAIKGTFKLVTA

For `COc1cc(/C=C/c2ccc(NC(=O)C3CC3)cc2)c(/C=C/[N+](=O)[O-])c(OC)c1`, the inhibition [1] was “inactive”, the Activity (Mus musculus [2]) was “Active” and the Activity (Mus musculus [3]) was “Active”. The inhibition [4] was 73.1%, the CLhep predicted [5] was 11 mL/min/kg and the inhibition [6] was “Dose-Dependent Effect”. The CLhep predicted [7] was 52.5 mL/min/kg, the Activity [8] was “Active” and the Activity [9] was “Non-Toxic”. For the same compound, the clearance [10] was 87.5 mL/min/kg, the inhibition (Mus musculus [11]) was “Active” and the Activity (BMDM) was “inactive”. The inhibition [12] was “Active”, the AUC(0-inf) [13] was 583 ng·h/mL and the inhibition [14] was “Active”. The Activity [15] was “Active”, the inhibition [16] was “Active” and the half-life [17] was 0.96 h. The inhibition [18] was “Dose-Dependent Effect”, the inhibition [19] was “Dose-Dependent Effect” and the Activity [20] was “Non-Toxic”. The IC50 (L02) was > 100 µM, the AUC [21] was 845.93 ng·h/mL and the inhibition [22] was “Active”. For the same compound, the inhibition [23] was “Active”, the microsomal CLint [24] was 32 µL/min/mg and the Activity (Mus musculus [25]) was “Active”. For the same compound, the half-life [26] was 1.13 h, the Activity (Mus musculus [27]) was “Active” and the Activity [28] was “Non-Toxic”. For the same compound, the inhibition [29] was “Active”.
